For test [1], the target named is α-glucosidase (EC 3.2.1.20).
Procedure: The α-glucosidase (EC 3.2.1.20; Saccharomyces cerevisiae) assay was carried out using 50 mM of phosphate buffer (pH = 6.8). The test samples were dissolved in DMSO. The enzyme (1U/2mL) dissolved in phosphate buffer: 20 µL/well of enzyme, 20 µL/well of test samples, and 135 µL/well of phosphate buffer were employed in the 96-well plate. After adding all of these into the 96-well plate, followed by 15 min incubation at 37 °C, 25 µL/well of substrate para-nitro phenyl-α-D-glucopyranoside (0.7 mM) was added to the 96-well plate, and measurements were taken at 400 nm for 30 min using a spectrophotometer (xMarkTM Microplate, Bio-Rad, Hercules, CA, USA). As a control, 7% DMSO was employed. […] For mechanistic studies, a similar procedure was employed, with the addition of four different substrate concentrations: 0.1, 0.2, 0.4, and 0.8 µM. The percentage of inhibition was estimated using the following formula: % Inhibition=100×O.D. of test compound/O.D. of control−100
Another test deals with α-glucosidase. The test can be described thus: Kinetic (mechanistic) studies of α-glucosidase inhibition. The class given is biochemical, Saccharomyces cerevisiae. Particulars: for Ki: four substrate concentrations, Lineweaver–Burk / Dixon plots; for type of inhibition: kinetic studies. On the procedure:
In this type of inhibition, the inhibitor binds with the active site residue of enzyme and, therefore, Vmax remains the same, with an increase in the Km. […] In this type of inhibition, both inhibitors—Vmax and Km—are affected by Vmax decreases and Km increases. […] The test samples were dissolved in DMSO. […] (B) Secondary replot of Lineweaver–Burk plot between the slopes of each Lineweaver–Burk plot vs. different concentrations of compound 6f. (C) Dixon plot of reciprocal of rate of reaction (velocities) vs. different concentrations of compound 6f. […] (B) Secondary replot of Lineweaver–Burk plot between the slopes of each Lineweaver–Burk plot vs. different concentrations of compound 7h. (C) Dixon plot of reciprocal of rate of reaction (velocities) vs. different concentrations of compound 7h.

The mark [2] stands for this setting: read-out: IC50, α-glucosidase-inhibitory activity.
The mark [3] stands for this setting: read-out: IC50 ± µM, in vitro α-glucosidase-inhibitory activity, Table 2, substrate p-nitrophenyl-α-D-glucopyranoside 0.7 mM, pH 6.8, 37 °C.

The text below walks through data of paper PMC9960759, “Discovery of New Boswellic Acid Hybrid 1H-1,2,3-Triazoles for Diabetic Management: In Vitro and In Silico Studies” (Pharmaceuticals, 2023).

Where two headings read alike, the source gives them in different places.

For `CC(=O)OC1CCC2(C)C(CCC3(C)C2C(=O)C=C2C4C(C)C(C)CCC4(C)CCC23C)C1(C)C(=O)OCn1cc(-c2ccccc2)nn1` (stereo not drawn) [6a, (4-Phenyl-1H-1,2,3-triazol-1-yl) Methyl 3α-acetyloxy-11-oxo-urs-12-en-24-oate], the 50% inhibitory concentration (IC50) in test [1] (setting [2]) stood at 2.02 ± 0.031 µM; in test [1] (setting [3]) it was 2.02 ± 0.03 µM.

Turning to `CC(=O)O[C@@H]1CC[C@@]2(C)[C@@H](CC[C@]3(C)[C@@H]2C(=O)C=C2[C@@H]4[C@@H](C)[C@H](C)CC[C@]4(C)CC[C@]23C)[C@@]1(C)C(=O)OCn1cc(-c2ccccc2C)nn1` [6b, (4-(O-tolyl)-1H-1,2,3-triazol-1-yl) Methyl 3α-acetyloxy-11-oxo-urs-12-en-24-oate], the IC50 in test [1] (setting [2]) and in test [1] (setting [3]) was 2.25 ± 0.1 µM in each case.

Turning to `COc1ccccc1-c1cn(COC(=O)C2(C)C(OC(C)=O)CCC3(C)C2CCC2(C)C3C(=O)C=C3C4C(C)C(C)CCC4(C)CCC32C)nn1` (stereo not drawn) [6c, (4-(Ortho-methoxyphenyl)-1H-1,2,3-triazol-1-yl) Methyl 3α-acetyloxy-11-oxo-urs-12-en-24-oate], the figures for the IC50 in test [1] (setting [2]) and in test [1] (setting [3]) were 1.23 µM and 1.23 ± 0.08 µM, respectively.

In the case of `CC(=O)O[C@@H]1CC[C@@]2(C)[C@@H](CC[C@]3(C)[C@@H]2C(=O)C=C2[C@@H]4[C@@H](C)[C@H](C)CC[C@]4(C)CC[C@]23C)[C@@]1(C)C(=O)OCn1cc(-c2ccccc2C(F)(F)F)nn1` [6d], the IC50 in test [1] (setting [2]) worked out at 2.37 µM; in test [1] (setting [3]), 2.37 ± 0.11 µM.

`COc1ccc(-c2cn(COC(=O)C3(C)C(OC(C)=O)CCC4(C)C3CCC3(C)C4C(=O)C=C4C5C(C)C(C)CCC5(C)CCC43C)nn2)cc1` (stereo not drawn) [6e, (4-(Para-methoxyphenyl)-1H-1,2,3-triazol-1-yl) Methyl 3α-acetyloxy-11-oxo-urs-12-en-24-oate]: the IC50 in test [1] (setting [2]) is 2.01 µM; in test [1] (setting [3]), 2.01 ± 0.09 µM.

Consider `CC(=O)OC1CCC2(C)C(CCC3(C)C2C(=O)C=C2C4C(C)C(C)CCC4(C)CCC23C)C1(C)C(=O)OCn1cc(-c2cccc(C(F)(F)F)c2)nn1` (stereo not shown) [6f], for which the IC50 in test [1] (setting [2]) came to 0.22 µM. Also, the IC50 in test [1] (setting [3]) is 0.22 ± 0.08 µM. For the same compound, at α-glucosidase, the Ki turned out to be 0.84 ± 0.007 µM and the type of inhibition entry is “competitive”.

`CC(=O)O[C@@H]1CC[C@@]2(C)[C@@H](CC[C@]3(C)[C@@H]2C(=O)C=C2[C@@H]4[C@@H](C)[C@H](C)CC[C@]4(C)CC[C@]23C)[C@@]1(C)C(=O)OCn1cc(-c2cccc(Br)c2)nn1` [6g]: the IC50 amounted to 0.78 µM in test [1] (setting [2]) and 0.78 ± 0.01 µM in test [1] (setting [3]). The compound further came in with a Ki on α-glucosidase of 0.84 ± 0.007 µM. For the same compound, in the test with α-glucosidase, the type of inhibition entry is listed as “competitive”.

As to `CC(=O)OC1CCC2(C)C(CCC3(C)C2C(=O)C=C2C4C(C)C(C)CCC4(C)CCC23C)C1(C)C(=O)OCn1cc(-c2ccc(Br)cc2)nn1` (stereo not shown) [6h], the IC50 came to 0.69 µM in test [1] (setting [2]) and 0.69 ± 0.04 µM in test [1] (setting [3]).

With `CC(=O)O[C@@H]1CC[C@@]2(C)[C@@H](CC[C@]3(C)[C@@H]2C(=O)C=C2[C@@H]4[C@@H](C)[C@H](C)CC[C@]4(C)CC[C@]23C)[C@@]1(C)C(=O)OCn1cc(-c2ccc(Cl)cc2)nn1` [6i], the IC50 in test [1] (setting [2]) stood at 3.06 µM; in test [1] (setting [3]), 3.06 ± 0.22 µM.

On to `CC(=O)O[C@@H]1CC[C@@]2(C)[C@@H](CC[C@]3(C)[C@@H]2C(=O)C=C2[C@@H]4[C@@H](C)[C@H](C)CC[C@]4(C)CC[C@]23C)[C@@]1(C)C(=O)OCn1cc(-c2ccc(F)cc2)nn1` [6j], for which the IC50 in test [1] (setting [2]) was 0.58 µM; in test [1] (setting [3]) it was 0.58 ± 0.04 µM.

Turning to `CC(=O)O[C@@H]1CC[C@@]2(C)[C@@H](CC[C@]3(C)[C@@H]2C(=O)C=C2[C@@H]4[C@@H](C)[C@H](C)CC[C@]4(C)CC[C@]23C)[C@@]1(C)C(=O)OCn1cc(-c2ccc(C(F)(F)F)cc2)nn1` [6k], the IC50 turned out to be 1.26 µM in test [1] (setting [2]) and 1.26 ± 0.05 µM in test [1] (setting [3]).

Turning to `CC1CCC2(C)CCC3(C)C(=CC(=O)C4C5(C)CCC(O)C(C)(C(=O)OCn6cc(-c7ccccc7)nn6)C5CCC43C)C2C1C` (stereo not drawn) [7a, (4-Phenyl-1H-1,2,3-triazol-1-yl) Methyl 3α-hydroxy-11-oxo-urs-12-en-24-oate], the IC50 in test [1] (setting [2]) was 2.31 µM; in test [1] (setting [3]) it was 2.31 ± 0.17 µM.

As to `Cc1ccccc1-c1cn(COC(=O)C2(C)C(O)CCC3(C)C2CCC2(C)C3C(=O)C=C3C4C(C)C(C)CCC4(C)CCC32C)nn1` (stereo not drawn) [7b, (4-(Ortho-tolyl)-1H-1,2,3-triazol-1-yl) Methyl 3α-hydroxy-11-oxo-urs-12-en-24-oate], the IC50 worked out at 2.11 µM in test [1] (setting [2]) and 2.11 ± 0.1 µM in test [1] (setting [3]).

With `COc1ccccc1-c1cn(COC(=O)[C@@]2(C)[C@H](O)CC[C@@]3(C)[C@H]2CC[C@]2(C)[C@@H]3C(=O)C=C3[C@@H]4[C@@H](C)[C@H](C)CC[C@]4(C)CC[C@]32C)nn1` [7c, (4-(Ortho-methoxyphenyl)-1H-1,2,3-triazol-1-yl) Methyl 3α-hydroxy-11-oxo-urs-12-en-24-oate], the half-inhibitory concentration (IC50) is 2.18 µM in test [1] (setting [2]) and 2.18 ± 0.01 µM in test [1] (setting [3]).

As for `CC(=O)O[C@@H]1CC[C@@]2(C)[C@@H](CC[C@]3(C)[C@@H]2C(=O)C=C2[C@@H]4[C@@H](C)[C@H](C)CC[C@]4(C)CC[C@]23C)[C@@]1(C)C(=O)OCn1cc(-c2ccccc2C(F)(F)F)nn1` [7d], the concentration for half-maximal inhibition (IC50) in test [1] (setting [2]) was 2.62 µM; in test [1] (setting [3]) it was 2.62 ± 0.06 µM.

As for `COc1ccc(-c2cn(COC(=O)C3(C)C(O)CCC4(C)C3CCC3(C)C4C(=O)C=C4C5C(C)C(C)CCC5(C)CCC43C)nn2)cc1` (stereo not drawn) [7e, (4-(Para-methoxyphenyl)-1H-1,2,3-triazol-1-yl) Methyl 3α-hydroxy-11-oxo-urs-12-en-24-oate], the IC50 in test [1] (setting [2]) worked out at 2.37 µM; in test [1] (setting [3]), 2.37 ± 0.07 µM.

For the compound `CC1CCC2(C)CCC3(C)C(=CC(=O)C4C5(C)CCC(O)C(C)(C(=O)OCn6cc(-c7cccc(C(F)(F)F)c7)nn6)C5CCC43C)C2C1C` (stereo not shown) [7f], the 50% inhibitory concentration (IC50) was determined as 2.52 µM in test [1] (setting [2]) and 2.52 ± 0.12 µM in test [1] (setting [3]).

Turning to `C[C@H]1[C@H](C)CC[C@]2(C)CC[C@]3(C)C(=CC(=O)[C@@H]4[C@@]5(C)CC[C@@H](O)[C@](C)(C(=O)OCn6cc(-c7cccc(Br)c7)nn6)[C@@H]5CC[C@]43C)[C@H]12` [7g], the IC50 was determined as 1.34 µM in test [1] (setting [2]) and 1.34 ± 0.02 µM in test [1] (setting [3]).

On to `C[C@H]1[C@H](C)CC[C@]2(C)CC[C@]3(C)C(=CC(=O)[C@@H]4[C@@]5(C)CC[C@@H](O)[C@](C)(C(=O)OCn6cc(-c7ccc(Br)cc7)nn6)[C@@H]5CC[C@]43C)[C@H]12` [7h], for which the IC50 in test [1] (setting [2]) amounted to 0.43 µM. The IC50 in test [1] (setting [3]) amounted to 0.43 ± 0.05 µM. Further, on α-glucosidase, the Ki came to 1.18 ± 0.0012 µM and the type of inhibition entry is on record as “mixed”.

For the compound `CC(=O)O[C@@H]1CC[C@@]2(C)[C@@H](CC[C@]3(C)[C@@H]2C(=O)C=C2[C@@H]4[C@@H](C)[C@H](C)CC[C@]4(C)CC[C@]23C)[C@@]1(C)C(=O)OCn1cc(-c2ccc(Cl)cc2)nn1` [7i], the IC50 stood at 3.18 µM in test [1] (setting [2]) and 3.18 ± 0.69 µM in test [1] (setting [3]).

Turning to `CC(=O)O[C@@H]1CC[C@@]2(C)[C@@H](CC[C@]3(C)[C@@H]2C(=O)C=C2[C@@H]4[C@@H](C)[C@H](C)CC[C@]4(C)CC[C@]23C)[C@@]1(C)C(=O)OCn1cc(-c2ccc(F)cc2)nn1` [7j], the results for the IC50 in test [1] (setting [2]) and in test [1] (setting [3]) were 2.64 µM and 2.64 ± 0.03 µM, respectively.

Regarding `CC(=O)O[C@@H]1CC[C@@]2(C)[C@@H](CC[C@]3(C)[C@@H]2C(=O)C=C2[C@@H]4[C@@H](C)[C@H](C)CC[C@]4(C)CC[C@]23C)[C@@]1(C)C(=O)OCn1cc(-c2ccc(C(F)(F)F)cc2)nn1` [7k], the IC50 turned out to be 1.39 µM in test [1] (setting [2]) and 1.39 ± 0.11 µM in test [1] (setting [3]).

For the compound `C#CCOC(=O)[C@]1(C)C2CC[C@]3(C)C(C(=O)C=C4[C@@H]5[C@@H](C)[C@H](C)CC[C@]5(C)CC[C@]43C)[C@@]2(C)CC[C@H]1OC(C)=O` (stereo partly drawn) [compound 3, (Prop-2-yne-1-yl) 3α-acetyloxy-11-oxo-urs-12-en-24-oate], the IC50 in test [1] (setting [2]) is 4.72 ± 0.52 µM.

As for `C#CCOC(=O)C1(C)C(O)CCC2(C)C1CCC1(C)C2C(=O)C=C2C3C(C)C(C)CCC3(C)CCC21C` (stereo not drawn) [compound 4, (Prop-2-yne-1-yl) 3α-hydroxy-11-oxo-urs-12-en-24-oate], in test [1] (setting [2]), the concentration for half-maximal inhibition (IC50) is 5.32 ± 0.15 µM.

In general, IC50 refers to the concentration needed to halve the response being measured. As usually defined, the Ki is the dissociation constant of the complex between target and ligand, obtained from inhibition or displacement. Low readings indicate tighter binding, high ones weaker binding.
